Test results published in article PMC4900597, “Evaluation of the Effects of Pasireotide LAR Administration on Lymphocele Prevention after Axillary Node Dissection for Breast Cancer: Results of a Randomized Non-Comparative Phase 2 Study” (PLoS ONE, 2016).
Starred links: 1 amine or outer side, 2 acyl side, 3 side chain; linkers in the order of their positions; H or OH if unused. Non-standard residues stand in square brackets, D forms with d. Residues, ends and D or L forms follow the SMILES beside them. Groups on a side chain read outwards from the residue. *: point of attachment. Ethylenediamine = C(CN[*:2])N[*:1]; Hyp = O=C(O)[C@@H]1C[C@@H](O)CN1; Phg = N[C@H](C(=O)O)c1ccccc1; CO = O=C([*:1])[*:2]; Bn = c1ccc(C*)cc1

Assays:
[1] = test system: female patients undergoing mastectomy with axillary lymph node dissection for breast cancer; test: Phase 2 trial, secondary endpoints: post-operative course (drainage, aspirations, healing, hospital stay); assay type: in vivo, human
sst4 = test system: sst4; set-up: method as in PMID 11980628; details: ref [14]; cited from earlier work
Description: Pasireotide is an injectable somatostatin analog. […] The five somatostatin receptors (sst 1 to 5) are expressed in various organs under normal physiological conditions. Somatostatin analogs activate these receptors, which in turn reduce cell activity and inhibit hormone synthesis. Octreotide and lanreotide, which are currently used, have strong affinities for the sst2 receptor and moderate affinities, if any, for the other receptor types.

[2] = test system: female patients undergoing mastectomy with axillary lymph node dissection for breast cancer; test: Phase 2 trial, safety / adverse events; assay type: in vivo, human; details: treatment group; patient with insulin-dependent diabetes hospitalised for hyperglycaemia
Procedure: The screening was performed during the pre-surgical visit. At the baseline visit (V1) 7 to 10 days prior to surgery, patients signed the informed consent, and pasireotide or the placebo were injected. In addition, a blood sample for pharmacokinetic monitoring was taken. On the day of surgery or the day after surgery (V2), data concerning the operation (type of surgery, duration, intraoperative complications, type and number of drains) and recording of adverse events were performed. On the day of discharge (V3), the summary of the daily collection of postoperative data was completed (daily and total drainage volumes, dates on which drains were removed and overall duration of drainage, postoperative complications, whether aspiration of a symptomatic lymphocele was required, length of hospital stay and recording of adverse events).
A second blood sample for pharmacokinetic monitoring was taken during this visit.
Follow-up visits at 2 months (V6) allowed the recording of late adverse events.

[3] = cited from earlier work
Procedure: Differences between the results reported by Carcoforo [10] and Mahmoud and our results could be partially explained. First, the clinical practices were different. In our practice, drains were removed before the seventh post-operative day, whereas in the studies by Carcoforo [10] and Mahmoud^11 the mean duration of drainage was between 7 and 25 days. Second, the other authors both used octreotide 0.1 mg three times a day subcutaneously for 5 [10] or 7 [11] days, starting on the first postoperative day. In our study, we chose a long-acting release formulation of pasireotide (pasir ... || The gradual release form must be injected intramuscularly prior to surgery. An effective plateau concentration is obtained after 10 days regardless of the selected dosage (20, 40, or 60 mg) (3).

sst1 = details: ref [14]; cited from earlier work
Description: (§1) The five somatostatin receptors (sst 1 to 5) are expressed in various organs under normal physiological conditions. Somatostatin analogs activate these receptors, which in turn reduce cell activity and inhibit hormone synthesis. Octreotide and lanreotide, which are currently used, have strong affinities for the sst2 receptor and moderate affinities, if any, for the other receptor types.

sst5 = test system: sst5; set-up: method as in PMID 11980628; details: ref [14]; cited from earlier work
Description: as §1

sst3 = test system: sst3; set-up: method as in PMID 11980628; details: ref [14]; cited from earlier work
Description: as §1

[4] = test system: female patients undergoing mastectomy with axillary lymph node dissection for breast cancer; test: Phase 2 randomised trial, primary outcome: absence of post-operative axillary symptomatic lymphocele; details: versus placebo group
Procedure: All female patients for whom mastectomy and ALND were indicated were eligible for the study, including patients who had received neo-adjuvant chemotherapy. Main exclusion criteria were related to diabetes, cardiac insufficiency, disorder of cardiac conduction or hepatic failure. […] This choice of these variables was decided because they could influence the rate of post-operative lymphocele and so created bias. Randomization was carried out by the Statistics Team at Hôpital Saint Louis in charge of the project (only one randomization list for both centers). […]
The postoperative visit was 28 ± 4 days following surgery (V5), and a routine lymphocele aspiration was warranted and considered positive if the aspirated volume exceeded 120 cc. Again, data on the number of repeated lymphocele aspirations and the volume were collected, and adverse events were recorded.
The primary motivation for this sequential Bayesian strategy were: (1) the uncertainty about the effect of the procedure, (2) the small sample and (3) it allows continuous monitoring of outcomes throughout the trial. […] Additionally, based on the subsequent distribution experimental group, early stopping criteria were calculated to allow early termination of the trial for inefficacy if there was substantial evidence that the estimated response rate was unacceptably low compared to the expected minimal response rate of 60%. […]

[5] = test system: renal transplantation patients; set-up: method as in PMID 16757259; details: patients treated with octreotide; ref [22]; cited from earlier work
sst2 = test system: sst2; set-up: method as in 2 sources, ref [14] = [14]; PMID 11980628; doi:10.1530/eje.0.1460707; 14 Bruns C , Lewis I , Briner U , Meno-Tetang G , Weckbecker G . SOM230: a novel somatostatin peptidomimetic with broad somatotropin release inhibiting factor (SRIF) receptor binding and a unique anti ||| ref [14] (a number printed in a supplementary file, which may have a reference list of its own: not looked up in the article's list); details: ref [14]; cited from earlier work
Description: The five somatostatin receptors (sst 1 to 5) are expressed in various organs under normal physiological conditions. Somatostatin analogs activate these receptors, which in turn reduce cell activity and inhibit hormone synthesis. Octreotide and lanreotide, which are currently used, have strong affinities for the sst2 receptor and moderate affinities, if any, for the other receptor types. […] Like natural somatostatin and known analogs, its pharmaceutical efficacy depends on its binding to somatostatin receptors. There are five of these (sst 1 to 5); they are expressed in various bodily tissues under normal physiological conditions. Somatostatin analogs activate these receptors, which in turn reduce cell activity and inhibits hormone synthesis. (7). Octreotide and lanreotide, which are currently used, have a strong affinity for the sst2 receptor and moderate affinity, if any, for the other types.

[6] = test system: patients after axillary node dissection in breast cancer; set-up: method as in PMID 12648685; details: p = 0.0001, ref [10], cited from earlier work
[7] = test system: patients after axillary node dissection in breast cancer; set-up: method as in PMID 17214811; details: p = 0.0001, ref [11], cited from earlier work
[8] = test system: women with breast cancer undergoing ALND; details: compared to placebo, p = 0.035; ref [12]; cited from earlier work
Procedure: More recently, Gauthier et al. have reported the results of a phase 3, double-blind, randomized study using Lanreotide Autogel 90 mg LAR to reduce lymphorrhea volumes in the axillary drain during the first 4 postoperative days.

[9] = pasireotide LAR 40 and 60 mg, ref [21]

NCCCC[C@@H]1NC(=O)[C@@H](Cc2c[nH]c3ccccc23)NC(=O)[C@H](c2ccccc2)NC(=O)[C@@H]2C[C@@H](OC(=O)NCCN)CN2C(=O)[C@H](Cc2ccccc2)NC(=O)[C@H](Cc2ccc(OCc3ccccc3)cc2)NC1=O [Pasireotide] (cyclo([Hyp]([CO-Ethylenediamine])[Phg][dW]KY(Bn)F))
Daily flow axillary drain ([1]; Fig 3, Day 1): 50 mL | Daily flow mastectomy drain ([1]; Fig 3, Day 1): 52,5 ml | Daily flow axillary drain ([1]; Fig 3, Day 2): 50 mL | Daily flow mastectomy drain ([1]; Fig 3, Day 2): 40 mL | Daily flow axillary drain ([1]; Fig 3, Day 3): 65 mL | Daily flow mastectomy drain ([1]; Fig 3, Day 3): 38 mL | Daily flow axillary drain ([1]; Fig 3, Day 4): 50 mL | Daily flow mastectomy drain ([1]; Fig 3, Day 4): 40 mL | Daily flow axillary drain ([1]; Fig 3, Day 5): 75 mL | Daily flow mastectomy drain ([1]; Fig 3, Day 5): 41 mL | Daily flow axillary drain ([1]; Fig 3, Day 6): 50 mL | Daily flow mastectomy drain ([1]; Fig 3, Day 6): 40 mL | Daily flow axillary drain ([1]; Fig 3, Day 7): 35 mL | Daily flow mastectomy drain ([1]; Fig 3, Day 7): 30 mL | Length of time to onset of adjuvant chemotherapy ([1]; median [IQR]): 54 [37.5,60] days | Repeated lymphocele aspirations, total volume ([1]; median [IQR]): 270 [135,415] ml | Duration of drainage, axillary drain ([1]; median [IQR], n = 42): 3 [2,5] days | Duration of drainage, mastectomy drain ([1]; median [IQR], n = 42): 2.5 [1.75,4] days | Length of the hospital stay ([1]; median [IQR], n = 42): 5 [4,6] days | Total flow, axillary drain ([1]; median [IQR], n = 42): 165 [81,400.2] ml | Total flow, mastectomy drain ([1]; median [IQR], n = 42): 132.5 [55.5,226] ml | Patients who underwent systematic lymphocele aspiration on day 28 ([1]; treatment group): Twelve | Affinity for sst4 (sst4): none | Serious adverse events [2]: one | Time to effective plateau concentration ([3]; gradual release form i.m., regardless of dosage (20, 40, or 60 mg), ref (3) Schmid et al AACE 2005): 10 days | Time of first concentration peak after administration [3, 9]: 1 days | Time of second slow-release peak with maximum concentrations [3, 9]: ~20 days | Day from which the effect was obtained after injection ([3]; pasireotide LAR, ref [21]): seventh | Duration for which the effect remained ([3]; pasireotide LAR, ref [21]): up to 30 days | Residual concentration at day 28 ([3]; patients with neuroendocrine tumors, ref [23]): 16.5 ng/mL | Affinity for sst1 relative to octreotide (sst1): 30 times greater | Affinity for sst5 relative to octreotide (sst5): 40 times greater | Affinity for sst3 relative to octreotide (sst3): 5 times greater | Decrease in symptomatic lymphocele development in treated patients [4]: 12.2%

Octreotide
Duration of lymphatic leakage following transplantation [5]: shorter duration | Incidence of lymphocele formation after drain removal [5]: lower incidence | Affinity for the sst2 receptor, in words (sst2): strong | Daily drainage volume ([6]; subcutaneous octreotide in immediate postoperative period, untreated group 94.6 ml): 65.4 mL | Time of drain removal after surgery ([6]; untreated group 16.7 days): 7.1 days | Affinity for sst4 (sst4): none | Need for postoperative aspiration of lymphoceles ([7]; control 90%): 40% | Mean daily drainage volume ([7]; control 145 ml): 104 mL | Total duration of drainage ([7]; control 25 days): 12.7 days

lanreotide
Affinity for the sst2 receptor, in words (sst2): strong | Lymphorrhea volume, patients who only underwent an axillary dissection [8]: significantly reduced
